Measurements: patent publication US20130296391A1, “PLANT DISEASE CONTROLLING COMPOSITION AND METHOD FOR CONTROLLING PLANT DISEASE” (SUMITOMO CHEMICAL COMPANY, LIMITED, priority 2010, published 2013)

System: gray mold fungus (Botrytis cinerea)
Assay: cucumber leaf disk test against gray mold fungus, preventive value
Assay type: in vivo
Settings: single compound, 15° C., four days
Procedure: True leaf of cucumber was punched out with cork borer to 13 mm in diameter to prepare a leaf disk. In 24 well microwell plate that was dispensed with 1 ml 0:8% water agar, the leaf disk was placed such that the upper side of the leaf was in an upward direction. Thereto was added 20 micro liter a testing solution prepared by mixing a dimethyl sulfoxide solution of the present amide compound and a dimethyl sulfoxide solution of benomyl or carbendazim to a predetermined concentration to treat the leaf disk.
After confirming that the testing medical solution was dried, conidium of gray mold fungus (Botrytis cinerea) was suspended into potato dextrose broth (DIFCO) in a density of about 10^5 conidia/mL and was then subjected to a spray inoculation. After leaving to stand the leaf disk in a growth chamber set up at 15° C. for four days, an onset area on each leaf was measured and then calculated an onset area rate (hereinafter, referred to as an onset area rate belonging to treated group).
The same operation was carried out with 20 micro liter water instead of 20 micro liter the testing medicine solution to calculate an onset area rate (hereinafter, referred to an onset area rate belonging to non-treated group).
A preventive value was calculated from the above onset area rate belonging to treated group and the onset area rate belonging to non-treated group by the following equation:
Preventive value(%)=100×(A−B)/A
A: an onset area rate belonging to non-treated group
B: an onset area rate belonging to treated group
onset area rate=(onset area of the leaf disk)/(the total area of the leaf disk)
For comparison, the same operations as described in Test Examples 1 to 4 were carried out except that the testing medicine solution was substituted with predetermined concentration of a dimethyl sulfoxide solution of benomyl or carbendazim, so as to calculate a preventive value.

[1] = treatment concentration 0.5 ppm
[2] = treatment concentration 5.0 ppm

| Compound | preventive value (%) [1] [%] | preventive value (%) [2] [%] | preventive value (%) (treatment concentration 1.0 ppm) | preventive value (%) (treatment concentration 2.5 ppm) |
| --- | --- | --- | --- | --- |
| CCCCNC(=O)n1c(NC(=O)OC)nc2ccccc21 [benomyl] | 47.5 | 56.5 | – | – |
| COC(=O)Nc1nc2ccccc2[nH]1 [carbendazim] | 45 | 55.5 | – | – |
| CNC(=O)C(OC)c1ccccc1COc1cc(C)ccc1C (stereo not drawn) [the present amide compound] | – | – | 46 | 55.5 |
